Assay results as given in patent publication US20060183786A1, “Injectable long-acting analgesic composition comprising an ester derivative of ketorolac” (CHI MEI FOUNDATION HOSPITAL, priority 2005, published 2006).
Values after ≈ are worked out from the molar mass of the structure shown.

Columns and labels:
[1] = system: rats intraplantarly injected with carrageenin; experiment: Paw pressure test (pain threshold of paw), analgesic effect after intramuscular injection; type: in vivo, Sprague-Dawley rats
Method: Louis, Mo., USA) was injected subcutaneously into the plantar space of the right hind paw of all rats. Intraplantar injections were made with a Hamilton syringe and a 30-gauge hypodermic needle. The needle was inserted into the pad region of the glabrous skin and moved 6-8 mm proximal toward the tarsal region. • (5) Measurements of the pain threshold values of rat paw: Paw pressure test was conducted using the TSE Analgesia System (TSE Technical & Scientific Equipment GmbH; Bad Homburg, Germany). The TSE Analgesia System is designed to perform rapid and accurate screening of analgesic drug candidates on the normal and inflamed paw of small laboratory animals, according to the Randall-Selitto method. The data can be measured and recorded by a control unit and a computer system connected thereto. The animal's paw is placed on a plinth and is applied with an increasing pressure generated from the tip of a sensor. The applied pressure is measured. The sensor is made from smooth plastic to prevent the paw from being injured when the animal withdraws its paw suddenly. To start the test, a foot switch is pressed and the sensor is lowered rapidly until it contacts the rat's paw. Thereafter, the sensor is lowered in small steps until the pain threshold is reached, at which time the tested animal (rat) starts to move vigorously and tries to withdraw its paw. The foot switch is then released and the sensor is raised. The value of the applied pressure measured at the pain threshold is shown on the display and simultaneously delivered to the computer system, which is installed with a software system capable of transferring the measured data into Excel format, which can be used as a basis for further evaluation, e.g., statistics. The TSE Analgesia system is suitable for rats, mice and other small laboratory animals. […] To prevent tissue damage, a cutoff pressure of 350 gm was set. […] In order to keep a similar condition of carrageenin-induced paw edema and pain at each testing day, this 4-day study was accomplished by conducting four one-day studies consecutively (i.e. from day 1 to day 4). All rats received only one intramuscular injection of either ketorolac propyl ester ([…], […]) or the vehicle ([…]) at the start of study (day 1) and then (1 minute later) received intraplantar injection of carrageenin at either day 1, 2, 3, or day 4. Each rat received only one injection of carrageenin. […] A three-way analysis of variance with one-way repeated method was used to compare the differences between groups. The Bonferroni test was used as a post-hoc test to compare the differences between the medication groups and the vehicle group at each time point. […] (“*” means P<0.05 whereas “+” means P<0.01 when compared with the vehicle group). The three-way analysis of variance with one-way repeated method is a powerful statistical method which can be used to evaluate the differences among groups. […] A 4-day study was carried out. […] All rats received only one intramuscular injection of a tested analgesic drug (ketorolac or a ketorolac ester derivative, […]) or the vehicle ([…]) at the start of study (day 1) and then received intraplantar injection of carrageenin at either day 1, 2, 3, or day 4. Each rat received only one injection of carrageenin.

[2] = system: rats intraplantarly injected with carrageenin; experiment: Paw swelling (paw thickness), anti-inflammatory effect after intramuscular injection; type: in vivo, Sprague-Dawley rats; conditions: for Anti-inflammatory duration (h): in water
[3] = 30 mg (=80 μmole) given to an adult, clinical practice; cited from earlier work
[4] = cited from earlier work
[5] = parenteral, n>20,000; cited from earlier work
[6] = cited from earlier work; remark: listed apart in the source
Solubility in sesame oil = type: physicochemical
[7] = system: rats intraplantarly injected with carrageenin; experiment: Paw swelling (paw thickness), anti-inflammatory effect after intramuscular injection; type: in vivo, Sprague-Dawley rats
Method: Louis, Mo., USA) was injected subcutaneously into the plantar space of the right hind paw of all rats. Intraplantar injections were made with a Hamilton syringe and a 30-gauge hypodermic needle. The needle was inserted into the pad region of the glabrous skin and moved 6-8 mm proximal toward the tarsal region. • (5) Measurements of the pain threshold values of rat paw: Paw pressure test was conducted using the TSE Analgesia System (TSE Technical & Scientific Equipment GmbH; Bad Homburg, Germany). […] Paw thickness was measured immediately prior to and following carrageenin injection. […] A two-way analysis of variance with one-way repeated method was used to compare the differences between groups. The Bonferroni test was used as a post-hoc test to compare the differences between the medication groups and the vehicle group at each time point. […] (“*” means P<0.05 whereas “+” means P<0.01 when compared with the vehicle group). The two-way analysis of variance with one-way repeated method is a powerful statistical method which can be used to evaluate the differences among groups. […] In order to keep a similar condition of carrageenin-induced paw edema and pain at each testing day, this 4-day study was accomplished by conducting four one-day studies consecutively (i.e. from day 1 to day 4). All rats received only one intramuscular injection of either ketorolac propyl ester (80, 160, or 240 μmole/Kg, prepared in sesame oil) or the vehicle (sesame oil only) at the start of study (day 1) and then (1 minute later) received intraplantar injection of carrageenin at either day 1, 2, 3, or day 4. Each rat received only one injection of carrageenin. […] A three-way analysis of variance with one-way repeated method was used to compare the differences between groups. The Bonferroni test was used as a post-hoc test to compare the differences between the medication groups and the vehicle group at each time point. […] (“*” means P<0.05 whereas “+” means P<0.01 when compared with the vehicle group). The three-way analysis of variance with one-way repeated method is a powerful statistical method which can be used to evaluate the differences among groups. […] A 4-day study was carried out. […] All rats received only one intramuscular injection of a tested analgesic drug (ketorolac or a ketorolac ester derivative, prepared in sesame oil) or the vehicle (sesame oil only) at the start of study (day 1) and then received intraplantar injection of carrageenin at either day 1, 2, 3, or day 4. Each rat received only one injection of carrageenin. […] All rats received only one intramuscular injection of either a tested analgesic drug (ketorolac propyl ester prepared in four different oils) or the vehicle (4 different oils) at the start of study (day 1) and then received intraplantar injection of carrageenin at either day 1, 2, 3, or day 4. Each rat received only one injection of carrageenin.

[8] = human cadaver skin, compared with KEE; cited from earlier work
[9] = human serum, compared with KEE; cited from earlier work
[10] = compared with commercially available ketorolac (trometamole salt); cited from earlier work
[11] = cited from earlier work; remark: listed apart in the source
[12] = intramuscular injection of 24-240 μmole, in 0.9% saline
[13] = 240 μmole/Kg intramuscular, oil suspension in sesame oil
[14] = 240 μmole/Kg intramuscular, in oil A (sesame oil)
[15] = 80 μmole/Kg intramuscular, in oil A (sesame oil)
[16] = 160 μmole/Kg intramuscular, in oil A (sesame oil)
[17] = 240 μmole/Kg intramuscular, in oil B (soybean oil)
[18] = 240 μmole/Kg intramuscular, in oil C (peanut oil)
[19] = 240 μmole/Kg intramuscular, in oil D (castor oil)
[20] = 240 μmole/Kg intramuscular, in oil E (cotton seed oil)

## NC(CO)(CO)CO.O=C(c1ccccc1)c1ccc2n1CCC2C(=O)O (centres unmarked) [Ketorolac tromethamine, ketorolac tromethamine, reference compound]
[1]; 24 μmole/Kg intramuscular, in water
  Analgesic duration: 6 h
[1]; 80 μmole/Kg intramuscular, in water
  Analgesic duration: 6 h
[1]; 240 μmole/Kg intramuscular, in water
  Analgesic duration: 8 h
[1]; intramuscular injection 30 mg/kg in rats
  duration of action: 6 to 8 h
[1]; [12]
  duration of significant analgesic effects (pain threshold of paw): 6 to 8 h
[2]; 24 μmole/Kg intramuscular
  Anti-inflammatory duration (h): 8, 8, 8 h
[2]; 80 μmole/Kg intramuscular
  Anti-inflammatory duration (h): 8, 8, 8 h
[2]; 240 μmole/Kg intramuscular
  Anti-inflammatory duration (h): 8, 8, 8 h
[2]; [12]
  duration of significant anti-inflammatory effects (paw swelling): 8 h
[3]
  duration of action: 6 to 8 h

## O=C(c1ccccc1)c1ccc2n1CCC2C(=O)O (racemic) [Ketorolac, (±)-5-benzoyl-2,3-dihydro-1H-pyrrolizine-1-carboxylic acid]
[1]; [13]
  analgesic effect: failed to provide significant analgesic and antiinflamatory effects
[4]; healthy volunteers
  mean terminal elimination half-life (T1/2β): about 5 hours
[4]; in vivo
  apparent volume of distribution (Vd): < 0.3 L/kg
[5]
  odds ratio (OR), risk of gastrointestinal bleeding compared to opioids: 1.30
  odds ratio (OR), risk of operative site bleeding compared to opioids: 1.02
[6]
  bound to plasma proteins: > 99%
Solubility in sesame oil
  solubility in sesame oil: 10.6 mM (≈ 2710 µg/mL)
Solubility in sesame oil; oil or lipid
  solubility: 2700 µg/mL (≈ 10.6 mM)
[7]; [13]
  anti-inflammatory effect: failed to provide significant analgesic and antiinflamatory effects

## CCCCCCCOC(=O)C1CCn2c(C(=O)c3ccccc3)ccc21 (centres unmarked) [Ketorolac heptyl ester]
[1]; [14]
  Analgesic duration: 74 h
[7]; [14]
  Anti-inflammatory duration: 74 h

## CN(C)C(=O)COC(=O)C1CCn2c(C(=O)c3ccccc3)ccc21 (centres unmarked) [KDAE, ketorolac [(N,N-dimethylamino)carbonyl]methyl ester]
[8]
  skin flux: relatively higher skin flux
[9]
  enzymatic hydrolysis to liberate the parent drug: faster enzymatic hydrolysis

## O=C(O)C(=O)O.O=C(c1ccccc1)c1ccc2n1CCC2C(=O)OCCN1CCCC1 (centres unmarked) [oxalate salt of 2-(1-pyrrolidinyl)ethylester of ketorolac]
[10]
  undesired side effects (gastrointestinal irritation and ulceration): less undesired side effects

## CCCCCCCCCCCCCCCCOC(=O)C1CCn2c(C(=O)c3ccccc3)ccc21 (centres unmarked) [Ketorolac cetyl ester]
[1]; [14]
  Analgesic duration: 74 h
[7]; [14]
  Anti-inflammatory duration: 78 h

## CC(C)(C)OC(=O)C1CCn2c(C(=O)c3ccccc3)ccc21 (centres unmarked) [Ketorolac tert-butyl ester]
[1]; [14]
  Analgesic duration: 56 h
[7]; [14]
  Anti-inflammatory duration: 56 h

## CCCOC(=O)C1CCn2c(C(=O)c3ccccc3)ccc21 (centres unmarked) [Ketorolac propyl ester]
[1]; [15]
  Analgesic duration: 6 h
[1]; [16]
  Analgesic duration: 28 h
[1]; [14]
  Analgesic duration: 54 h
[1]; [17]
  Analgesic duration (h): 56, 56 h
[1]; [18]
  Analgesic duration (h): 56, 56 h
[1]; [19]
  Analgesic duration: 56 h
[1]; [20]
  Analgesic duration: 78 h
[7]; [15]
  Anti-inflammatory duration: 6 h
[7]; [16]
  Anti-inflammatory duration: 30 h
[7]; [14]
  Anti-inflammatory duration: 54 h
[7]; [17]
  Anti-inflammatory duration: 54 h
[7]; [18]
  Anti-inflammatory duration: 56 h
[7]; [19]
  Anti-inflammatory duration: 56 h
[7]; [20]
  Anti-inflammatory duration: 78 h
[11]
  permeation rate of ketorolac in rat skin (maximum): 46.61 nmole/cm^2/h

## CCCCCCCCCCOC(=O)C1CCn2c(C(=O)c3ccccc3)ccc21 (centres unmarked) [Ketorolac decyl ester]
[1]; [14]
  Analgesic duration: 76 h
[7]; [14]
  Anti-inflammatory duration: 76 h

## O=C(c1ccccc1)c1ccc2n1CCC2C(=O)OCc1ccccc1 (centres unmarked) [Ketorolac benzyl ester]
[1]; [14]
  Analgesic duration: 56 h
[7]; [14]
  Anti-inflammatory duration: 56 h

## CCCCCOC(=O)C1CCn2c(C(=O)c3ccccc3)ccc21 (centres unmarked) [Ketorolac pentyl ester]
[1]; [14]
  Analgesic duration: 56 h
[7]; [14]
  Anti-inflammatory duration: 56 h

## CCN(CC)CCOC(=O)C1CCn2c(C(=O)c3ccccc3)ccc21.O=C(O)/C=C\C(=O)O (centres unmarked) [maleate salt of 2-(diethylamino)ethyl ester of ketorolac]
[10]
  undesired side effects (gastrointestinal irritation and ulceration): less undesired side effects
